US4115453A (Miles Laboratories, Inc., priority 1977, dated 1978)

What was measured:
tracheal smooth muscle = details: in vitro; cited from earlier work
[1] = test system: human platelet aggregation; details: result in words; cited from earlier work
[2] = test system: smooth muscle of the vas deferens; details: cited from earlier work
blood platelets = details: in vitro; cited from earlier work
[3] = test system: female reproductive system; details: cited from earlier work
[4] = test system: human platelet aggregation; experiment: Test A: Inhibition of Human Platelet Aggregation; assay type: cell-based; details: human platelet rich plasma, in vitro, collagen-induced, 37° C, 15 minutes
Protocol: The ability of test compounds to inhibit platelet aggreagation was determined by a modification of the turbidometric technique of Born (Nature, 194: 927 [1962]). Blood was collected from human volunteer who had not ingested aspirin or aspirin-containing products within the preceding two weeks in heparinized containers and was allowed to settle for one (1) hour. The platelet rich plasma (prp) supernates were collected and cooled. Siliconized glassware was used throughout.
In a representative assay 1.9 ml of PRP and 0.2 ml of test compound at the appropriate concentrations (0.001 to 100 mcgm), or 0.2 ml of distilled water (control procedure) were placed in sample cuvettes. The cuvettes were placed in a 37° C incubation block for 15 minutes, and then in a spectrophotometer linked to a strip chart recorder. After 30-60 seconds, 0.2 ml of a solution, prepared by diluting a calf-skin collagen solution 1:9 with Tyrodes' Solution, was added to each cuvette. Platelet aggregation was evidenced by a decrease in optical density.
An ED50 value was then determined graphically.

gastric secretion = experiment: Test B: Inhibition of Rodent Gastric Secretion (pylorus-ligated rat); assay type: in vivo; details: subcutaneous, 2 x 1.5 mg/kg (total 3.0 mg/kg), 4 hours after pyloric ligation
Protocol: A procedure based on that described by Lipmann (J. Pharm. Pharmacol., 21:335 [ 1968]) was used to assess the influence of test compounds on gastric secretion. Rats of one sex weighing 150 to 200 g were randomly divided into groups of six animals each and fasted for 48 hours previously to the experiments, water being available adlibitum. The animals were anesthetized with ether, the abdomen was opened through a midline incision and the pylorus was ligated. Test compounds were diluted from stock solution so as to administer a dose of 1.5 mg/kg in a volume equivalent to 1 ml/kg. Subcutaneous injections were applied immediately after surgery and again 2 hours later, so that a total dose of 3.0 mg/kg was administered. Dilutions were made with phosphate buffer (pH 7.38) as recommended by Lee et al. (Prostaglandins 3:29 [ 1973]), in order to insure adequate stability of drugs at the subcutaneous depot. Each compound was tested in one group of rats; an additional control group received only the vehicle.
Four hours after pyloric ligation the animals were killed with ether, the cardias ligated and the stomachs removed. The volume of gastric secretion was measured and the contents centrifuged at 5000 rpm for 10 minutes. Total acid in the supernatant was titrated against a 0.1 N sodium hydroxide solution and the amount expressed in mEq.
Volume and total acid values of the treated group were compared with those of the controls by the "T" test. Antisecretory activity was scored according to the following scale: […]

femoral blood flow = experiment: Test C: Increase in Canidae Femoral Blood Flow; assay type: in vivo; details: anesthetized dog, intraarterial, 0.001 to 10 mcg
Protocol: The peripheral vasodilator or constrictor effects of test compounds were determined in mongrel dogs of either sex, weighing between 10 and 20 kg anesthestized intravenously with 35 mg/kg of sodium pentobarbital. An external iliac artery was dissected immediately above the femoral arch for a length of approximately 5 cm and a previously calibrated, non-connulating electromagnetic flowmeter sensor with a lumen between 2.5 and 3.5 mm was placed snugly around the vessel. Cannulas were placed in a branch of the artery arising distally to the location of the flowmeter sensor for intraarterial drug administrations, in the contralateral femoral artery for systemic blood pressure recordings and in the trachea for artificial respiration with room air. Femoral blood flow and systemic blood pressure were continuously recorded with an electromagnetic flowmeter and pressure tranducer, respectively.
After an adequate control period, test compounds were injected intraarterially at one log-spaced doses ranging from 0.001 to 10 mcg., in a volume of 0.5 ml and at 5 to 10 minute intervals. Maximum changes in bloodflow, as well as any variations in blood pressure, were tabulated for each dose in absolute values (ml/min. and mmHg). The calculations were made taking as control values those existing immediately before administration of each dose. The direction of the observed change (plus for increase and minus for decrease) was also noted. The dose changing bloodflow by 100 ml/min (ED100 ml/min) was calculated graphically and was used for scoring activity as follows: […]

blood pressure = experiment: Test D: Decrease in Normal Feline Blood Pressure and Heart Rate (anesthetized cat); assay type: in vivo; details: intravenous, 0.01 to 10.0 mcg/kg, judged only on hypotension
Protocol: The acute effects of test compounds on blood pressure and heart rate were determined in cats of either sex anesthetized with a mixture of pentobarbital sodium (35 mg/kg, i.v.) and barbital sodium (100 mg/kg, i.v.). Cannulas were placed in the trachea to allow adequate spontaneous ventilation, in a femoral artery for blood pressure recording with a strain gage transducer, and in a saphenous vein for drug administration. Heart rate was recorded by means of a cardiotachometer driven by the R wave of the electrocardiogram. After a period of 10 minutes of stable recordings of blood pressure and heart rate, the test compound was administered intravenously at doses increasing from 0.01 to 10.0 mcg/kg, spaced one log and injected at 10 minutes intervals. All doses were injected in a volume of 0.1 ml/kg. Modifications of blood pressure and heart rate induced by the test compound were expressed both in absolute units (mmHg and beats/minutes) and as percent of values recorded immediately before administration of each dose. Biphasic responses were tabulated in the order in which they occur. The direction of the observed changes was also noted (+ for increases and - for decreases).
Activity of compounds in this test was judged only on the basis of the degree of hypotension observed. Thus, the ED50 mmHg (dose decreasing blood pressure by 50 mmHg) was calculated graphically and the compound scored according to the following scale: […]

SMILES | effect on tracheal smooth muscle (tracheal smooth muscle) | Activity Value Test A (ED50, inhibition of platelet aggregation) [4] | Activity Value Test B (% decrease in acidity) (gastric secretion) | Activity Value Test C (ED100 ml/min, dose changing bloodflow by 100 ml/min) (femoral blood flow) | Activity Value Test D (ED50 mmHg, dose decreasing blood pressure by 50 mmHg) (blood pressure) | also measured
CCCCC[C@H](O)/C=C/[C@H]1[C@H](O)CC(=O)[C@@H]1C/C=C\CCCC(=O)O [PGE2] | relax | – | – | – | – | –
CCCCC[C@H](O)/C=C/[C@H]1[C@H](O)CC(=O)[C@@H]1CCCCCCC(=O)O [PGE1, prostaglandin E1] | relax | – | – | – | – | inhibition of platelet aggregation by natural prostaglandins [1]: displays a similar activity; contraction of the smooth muscle of the vas deferens [2]: contracts the smooth muscle of the vas deferens; thrombogenesis (blood platelets): inhibits thrombogenesis in vitro
CCCCC[C@H](O)/C=C/[C@@H]1[C@@H](C/C=C\CCCC(=O)O)[C@@H](O)C[C@H]1O [PGF2α] | contracts the smooth muscle | – | – | – | – | spontaneous abortions ([3]; early pregnancy): induces spontaneous abortions in early pregnancy; effect on fertility / gestation ([3]; female reproductive system): contragestational effects
O=C(O)CCCCCC[C@H]1C(=O)CC[C@@H]1/C=C/[C@H](O)C1CC2CCC2C1 (mixture of isomers) [TR-4096, dl-7-{5-oxo-2R[3R-hydroxy-3-(bicyclo[3.2.0]hept-3-yl)-1E-propenyl[cyclopent-1R-yl}heptanoic acid] | – | 1 (>1.0) | 0 (<26) | 2 (0.11 - 1.0) | 0 (>10.0) | –
COC(=O)CCCCCC[C@H]1C(=O)C[C@@H](O)[C@@H]1/C=C/[C@H](O)CCCCC1CCC2CCC1C2 (stereo partly drawn) [TR-4116, methyl 7-{3R-hydroxy-5-oxo-2R-[3R-hydroxy-7-(bicyclo[3.2.1]oct-2-yl)-1E-heptenyl]cyclopent-1R-yl}heptanoate] | – | 1 (>1.0) | 0 (<26) | 0 (>10.0) | 0 (>10.0) | –
